Reference: US8952024B2, “Herbicidal pyrimidone derivatives” (E I du Pont de Nemours and Company, priority 2009, dated 2015)

Experiments:
Assay in all cases: Test C plant response
Type in all cases: in vivo
Settings in all cases: Preemergence, scale 0 to 100
[1] = tested on: bromegrass (downy bromegrass, Bromus tectorum)
[2] = tested on: field poppy (Papaver rhoeas)
[3] = tested on: deadnettle (henbit deadnettle, Lamium amplexicaule)

`O=C1CCCC(O)=C1C(=O)c1cnc(-c2ccccc2)n(-c2ccccc2)c1=O` [Compound 2, 5-[(2-hydroxy-6-oxo-1-cyclohexen-1-yl)carbonyl]-2,3-diphenyl-4(3H)-pyrimidinone] was tested. Which “Plant response rating: Bromegrass, Downy” value ([1]; 62 g ai/ha) did it give?
The value was 0.

And the “Plant response rating: Bromegrass, Downy” value ([1]; 125 g ai/ha)?
Its value is 0.

What about the “Plant response rating: Bromegrass, Downy” value ([1]; 16 g ai/ha) of the same compound?
Its value is 0.

What about the “Plant response rating: Bromegrass, Downy” value ([1]; 31 g ai/ha) of the same compound?
Its value is 0.

And the “Plant response rating: Field Poppy” value ([2]; 62 g ai/ha)?
Its value is 95.

What about the “Plant response rating: Field Poppy” value ([2]; 125 g ai/ha) of the same compound?
The value was 100.

What about the “Plant response rating: Field Poppy” value ([2]; 31 g ai/ha) of the same compound?
Its value is 75.

What about the “Plant response rating: Deadnettle” value ([3]; 62 g ai/ha) of the same compound?
Its value is 95.

What about the “Plant response rating: Deadnettle” value ([3]; 125 g ai/ha) of the same compound?
Its value is 98.

What about the “Plant response rating: Deadnettle” value ([3]; 16 g ai/ha) of the same compound?
Its value is 0.

What about the “Plant response rating: Deadnettle” value ([3]; 31 g ai/ha) of the same compound?
The value was 75.
